Biological target: Autotaxin (Homo sapiens, UniProt Q13822)
Experiment: Biochemical Assay: Compound IC50 values are determined in a fluorescent hENPP2 (UniProtKB/SwissProt Sequence ref Q13822) biochemical assay using the fluorogenic autotaxin substrate FS-3 as substrate. FS-3 is a doubly labeled analog of LPC wherein the fluorophore is quenched through intramolecular energy transfer. Without hENPP2, the emission of the probe is quenched. If the substrate is hydrolyzed by hENPP2, the emission of the probe is not quenched anymore resulting in a fluorescence increase. Inhibition of hENPP2 by compounds will result in a decrease of the signal. 10 uL of a dilution series of compound, starting from 20 uM highest concentration, dilution, is added to the wells. hENPP2 is used at a final concentration of 0.4 ug/mL or 0.64 ug/mL (it will be appreciated by the skilled person that the potency read out is independent of the enzyme concentration). The enzyme is diluted in 50 mM Tris-HCl pH 8.0, 250 mM NaCl, 5 mM KCl, 1 mM MgCl2, 1 mM CaCl2, 0.1% fatty acid free BSA in a total volume of 20 uL. Enzyme mixture is added to compounds and the resulting mixture is incubated for 30 min at room temperature under shaking. The reaction is started by the addition of 20 uL of 0.75 uM FS-3 diluted in the same buffer as described above and the mixture is incubated at 30° C. for 30 min. Fluorescence is read on the Envision (Excitation 485 nm, emission 520 nm).

## CCc1nc2ccc(N3CCC(NC(=O)C4CCOCC4)CC3)nn2c1N(C)c1nc(-c2ccc(F)cc2)cs1
  IC50: < 1000 nM

— ChEMBL document CHEMBL5726561, “Compounds and pharmaceutical compositions thereof for the treatment of inflammatory disorders” (2017)
